Experimental data reported in patent US20030119814A1, “Novel prodrugs of N-H bond-containing compounds and methods of making thereof” (The University of Kansas, priority 2001, published 2003).

Experiments:
[1] = rabbits; due to high thiols in the blood; cited from earlier work
[2] = physchem; settings: soybean oil, oil or lipid
[3] = Reversion of prodrug to parent on addition of 10 times molar excess of cysteine; format: physicochemical
Protocol: (§1) 1HNMR (300 MHz, DMSO-d6): □ 3.05 (d of d, 1H), 3.25 (d of d, 1H), 3.80 (broad), 4.15 (broad, 1H), 7.45 (t, 2H), 7.55 (t, 1H), 7.80 (d, 2H), 8.40 (broad), 9.60 (s, 1H). FAB+ 241.0 (M+1). […] When a 10 times molar excess of cysteine was added to the above solution, the model prodrug degraded (reverted to yield benzamide) with a half life of ˜20 to 30 minutes. In addition, the above benzamide-cysteine model prodrug had improved aqueous solubility compared to benzamide.
(§2) 1HNMR (300 MHz, CDCl3): □ 1.15 (t, 3H), 3.10 (d of d, 11H), 3.70 (d of d, 11H), 3.95 (m, 2H), 4.70 (m, 1H), 5.05 (d of d, 2H), 6.25 (d, 1H), 7.35 (broad s, 5H), 7.75 (m, 2H), 7.90 (m, 2H). […] When a 10 times molar excess of cysteine was added to the above solution, the model prodrug degraded (reverted to yield phthalimide) instantaneously (kinetics were not measurable).

[4] = Aqueous stability in buffer at 25 degrees Celsius; format: physicochemical; settings: for aqueous degradation kinetics: buffered aqueous solution, Ionic Strength 0.15M; for half-life: 35 mM Acetate Buffer, Ionic Strength 0.15M (NaCl)
Protocol: as §1, §2
(§3) ^1HNMR (300 MHz, DMSO-d6): □ 1.15 (t, 3H), 2.85 (d of d, 1H), 3.05 (d of d, 1H), 4.05 (m, 1H), 4.15 (q, 2H), 6.95 (s, 2H), 7.10 (s, 1H), 7.35 (m, 2H), 7.40 (broad s, 6H), 8.40 (broad). FAB+ 384.1 (M+1).

[5] = Aqueous solubility compared to parent compound; format: physicochemical
Protocol: as §1, §3

[6] = within a pH range of 4.0 to 7.0, 25 degrees Celsius, projected by Eyring Plot

Row | Compound | solubility [2] | pH of maximum stability [4, 6] | aqueous solubility compared to parent compound [5] | aqueous degradation kinetics [4] | also measured
1 | O=C1C2CC=CCC2C(=O)N1SC(Cl)(Cl)Cl (stereo not shown) [Captan, N-trichloromethylthio-4-cyclohexane 1,2-dicarboximide] |  |  |  |  | fate of active form in the body [1]: broken down in the body
2 | CCOC(=O)CCSN(CC1CN(c2ccc(N3CCOCC3)c(F)c2)C(=O)O1)C(C)=O (stereo not shown) [Example 10] | > 30 mg/mL |  |  |  | 
3 | CC(=O)N(CC1CN(c2ccc(N3CCOCC3)c(F)c2)C(=O)O1)Sc1ccccc1 (stereo not shown) [Example 11] | > 10 mg/mL |  |  |  | melting point: 120.9 °C
4 | CCOC(=O)C(CSN1C(=O)c2ccccc2C1=O)NC(=O)OCc1ccccc1 (stereo not shown) [Example 15] |  |  |  | did not show pseudo-first order kinetics | degradation (reversion to parent) with cysteine ([3]; 10 times molar excess of cysteine added to the acetate buffer solution, kinetics not measurable): instantaneously; half-life ([4]; pH 3.5, 25 degrees Celsius): 8 to 9 days; pH of maximum stability ([4]; within a pH range of 3.5 to 5.0, 25 degrees Celsius): 3.5

Now from value to compound, other results behind:

Row | solubility [2] | pH of maximum stability [4, 6] | aqueous solubility compared to parent compound [5] | Compound | aqueous degradation kinetics [4] | also measured
5 |  | 6.0 | improved | NC(CSNC(=O)c1ccccc1)C(=O)O (stereo not shown) [Example 13] | Pseudo-first order degradation kinetics were observed | half-life ([3]; phosphate buffer with 10 times molar excess of cysteine, 10 times molar excess of cysteine added to the phosphate buffer solution): 0.333 to 0.5 h
6 |  | 4.0 | greatly improved | CCOC(=O)C(N)CSNC(=O)N1c2ccccc2C=Cc2ccccc21 (stereo not shown) [Example 16] | Pseudo-first order degradation kinetics were observed | half-life ([4]; pH 4.0, 25 degrees Celsius, projected by Eyring Plot): ~181 days
